Several values for one entry are separate records, joined by “and”; a condition that tells them apart may be missing. Identical values can stand only once.
What follows are compounds tested against T1, factor D (Homo sapiens, UniProt P00746) (assay: factor D inhibition assay of Biological Example 2).
T1 construct: made in house; host or cells: E. coli
Format: biochemical

T1 sequence (P00746 26-253): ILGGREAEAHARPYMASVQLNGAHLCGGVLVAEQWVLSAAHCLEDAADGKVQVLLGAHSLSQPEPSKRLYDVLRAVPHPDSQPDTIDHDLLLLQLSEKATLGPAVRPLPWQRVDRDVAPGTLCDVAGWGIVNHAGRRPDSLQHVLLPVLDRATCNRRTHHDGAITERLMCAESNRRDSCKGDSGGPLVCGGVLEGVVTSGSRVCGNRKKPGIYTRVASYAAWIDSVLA

Structure (SMILES)	IC50
NCc1cccc(-c2cccc(S(=O)(=O)Nc3ccccc3CC(=O)O)c2)c1 [Example 48, 2-(2-(3′-(Aminomethyl)-[1,1′-biphenyl]-3-ylsulfonamido)phenyl)acetic acid]	2890 nM
NCc1cccc(-c2ccc(-c3cccc(CN)c3)c(C(=O)Nc3ccccc3CC(=O)O)n2)c1 [Example 56-B, 2-(2-(3,6-bis(3-(Aminomethyl)phenyl)picolinamido)phenyl)acetic acid]	117 nM
NCc1cccc(-c2cc(OCC3CCCO3)cc(C(=O)Nc3ccccc3CC(=O)O)c2)c1 (racemic) [Example 63, (±)-2-(2-(3′-(Aminomethyl)-5-((tetrahydrofuran-2-yl)methoxy)-[1,1′-biphenyl]-3-ylcarboxamido)phenyl)acetic acid]	16 nM
CCOC(=O)Cc1ccccc1NC(=O)c1cc(NC[C@H]2CCCO2)cc(-c2cc(F)cc(CN)c2)c1 [Example 85, (R)-Ethyl 2-(2-(3′-(aminomethyl)-5′-fluoro-5-(((tetrahydrofuran-2-yl)methyl)amino)-[1,1′-biphenyl]-3-ylcarboxamido)phenyl)acetate]	709 nM
C[C@H](N)c1cccc(-c2cc(COc3ccccc3CC(=O)O)cc(OC[C@H]3CCCO3)c2)c1F [Example 233, 2-(2-((3′-((S)-1-aminoethyl)-2′-fluoro-5-(((R)-tetrahydrofuran-2-yl)methoxy)-[1,1′-biphenyl]-3-yl)methoxy)phenyl)acetic acid]	4 nM
C[C@@H](N)c1cccc(-c2cc(CCc3ccncc3)cc(COc3ccccc3CC(=O)O)c2)c1F [Example 216-P]	13 nM
NCc1cccc(-c2cccc(COc3ccccc3C(NC(=O)C3CC3c3ccccc3)C(=O)O)c2)c1 (single isomer, unassigned) [Example 297-B, 2-(2-((3′-(aminomethyl)-[1,1′-biphenyl]-3-yl)methoxy)phenyl)-2-(2-phenylcyclopropanecarboxamido)acetic acid]	6 nM
NCc1cccc(-c2cc(NC[C@@H]3CCCO3)cc(C(=O)Nc3ccccc3CC(=O)O)n2)c1 [Example 45, (S)-2-(2-(6-(3-(Aminomethyl)phenyl)-4-(((tetrahydrofuran-2-yl)methyl)amino)picolinamido)phenyl)acetic acid]	12 nM
NCc1cccc(-c2cccc(COc3cc(C4CC4)ccc3CC(=O)O)c2)c1 [Example 294-A]	9 nM
C[C@@H](N)c1cccc(-c2cc(CCC3CCCN3C)cc(COc3ccccc3CC(=O)O)c2)c1F (stereo partly drawn) [Example 240-B, 2-(2-((3′-((R)-1-aminoethyl)-2′-fluoro-5-(2-(1-methylpyrrolidin-2-yl)ethyl)-[1,1′-biphenyl]-3-yl)methoxy)phenyl)acetic acid]	110 nM
C[C@@H](N)c1cccc(-c2cc(CCC3CCCN3)cc(COc3ccccc3CC(=O)O)c2)c1F (stereo partly drawn) [Example 238, 2-(2-((3′-((R)-1-aminoethyl)-2′-fluoro-5-(2-(pyrrolidin-2-yl)ethyl)-[1,1′-biphenyl]-3-yl)methoxy)phenyl)acetic acid]	23 nM
NCc1nc(-c2cccc(COc3ccccc3CC(=O)O)c2)cs1 [Example 190-K]	133 nM
CNC(=O)c1cc(COc2cc(C(=O)Nc3ccccc3CC(=O)O)cc(-c3cc(F)cc(CN)c3)c2)ccn1 [Example 71, 2-(2-(3′-(Aminomethyl)-5′-fluoro-5-((2-(methylcarbamoyl)pyridin-4-yl)methoxy)-[1,1′-biphenyl]-3-ylcarboxamido)phenyl)acetic acid]	9 nM
N[C@@H](CCO)c1cccc(-c2cccc(C(=O)Nc3ccccc3CC(=O)O)c2)c1 [Example 89, (S)-2-(2-(3′-(1-Amino-3-hydroxypropyl)-[1,1′-biphenyl]-3-ylcarboxamido)phenyl)acetic acid]	5250 nM
NCc1cccc(-c2cc(Cl)cc(C(=O)Nc3ccccc3CC(=O)O)n2)c1 [Example 41, 2-(2-(6-(3-(Aminomethyl)phenyl)-4-chloropicolinamido)phenyl)acetic acid]	74 nM
CNC(=O)c1cc(COc2cc(C(=O)Nc3ccccc3CC(=O)O)cc(-c3cccc(CN)c3)c2)ccn1 [Example 70, 2-(2-(3′-(Aminomethyl)-5-((2-(methylcarbamoyl)pyridin-4-yl)methoxy)-[1,1′-biphenyl]-3-ylcarboxamido)phenyl)acetic acid]	11 nM
C[C@@H](N)c1cccc(-c2cc(COc3ccccc3CC(=O)O)cc(NC[C@H]3CCCO3)c2)n1 [Example 225-C, 2-(2-((3-(6-((R)-1-aminoethyl)pyridin-2-yl)-5-((((R)-tetrahydrofuran-2-yl)methyl)amino)benzyl)oxy)phenyl)acetic acid]	16 nM
NCc1cccc(-c2cccc(COc3ccc(C(N)=O)cc3CC(=O)O)c2)c1 [Example 294-G]	4030 nM
COc1cc(COc2ccccc2CC(=O)O)cc(-c2cccc(CN)c2)c1 [Example 134, 2-(2-((3′-(Aminomethyl)-5-methoxy-[1,1′-biphenyl]-3-yl)methoxy)phenyl)acetic acid]	13 nM
CC(C)C(=O)Nc1cc(C(=O)Nc2ccccc2CC(=O)O)cc(-c2cc(F)cc(CN)c2)c1 [Example 97, 2-(2-(3′-(Aminomethyl)-5′-fluoro-5-isobutyramido-[1,1′-biphenyl]-3-ylcarboxamido)phenyl)acetic acid]	45 nM
NCc1cc(F)cc(-c2cc(NCC3CCOCC3)cc(C(=O)Nc3ccccc3CC(=O)O)c2)c1 [Example 79-E]	12 nM
C[C@@H](N)c1cccc(-c2cc(NCC3CC3)cc(N(C)Cc3ccccc3CC(=O)O)c2)c1F [Example 216-AA]	32 nM
C[C@@H](N)c1cccc(-c2cc(COc3ccccc3CC(=O)O)cc(OCc3ccncc3)c2)c1F [Example 214-F]	3 nM

Now from value to compound:

IC50	Structure (SMILES)
3270 nM	CC(C)(N)c1cccc(-c2cccc(COc3ccccc3CC(=O)O)c2)c1F [Example 190-L]
8 nM	NCc1cccc(-c2ccnc(COc3ccccc3CC(=O)O)c2)c1F [Example 182, 2-(2-((4-(3-(Aminomethyl)-2-fluorophenyl)pyridin-2-yl)methoxy)phenyl)acetic acid]
24 nM	CC(C)OCc1cc(COc2ccccc2CC(=O)O)cc(-c2cccc([C@@H](C)N)c2F)c1 [Example 120-O]
48 nM	N[C@H](C(=O)O)c1cccc(-c2cccc(COc3ccccc3CC(=O)O)c2)c1 [Example 193, (S)-2-Amino-2-(3′-((2-(carboxymethyl)phenoxy)methyl)-[1,1′-biphenyl]-3-yl)acetic acid]
10 nM	C[C@@H](N)c1cccc(-c2cc(COc3ccccc3CC(=O)O)cc(N3CCC3)c2)c1F [Example 247, (R)-2-(2-((3′-(1-aminoethyl)-5-(azetidin-1-yl)-2′-fluoro-[1,1′-biphenyl]-3-yl)methoxy)phenyl)acetic acid]
18 nM	CN(C)c1cc(COc2ccccc2CC(=O)O)cc(-c2cccc([C@H](N)CO)c2)c1 [Example 132, (S)-2-(2-((3′-(1-Amino-2-hydroxyethyl)-5-(dimethylamino)-[1,1′-biphenyl]-3-yl)methoxy)phenyl)acetic acid]
346 nM	C[C@@H](N)c1cccc(-c2cccc(COc3ccccc3CC(=O)O)c2)c1Cl [Example 142-A]
981 nM	C[C@H](O)[C@@H](N)c1cccc(-c2cccc(COc3ccccc3CC(=O)O)c2)c1 [Example 190-D]
280 nM	CC(O)c1cc(COc2ccccc2CC(=O)O)cc(-c2cccc([C@H](C)N)c2)c1 (some centres unmarked) [Example 120-L]
26 nM	N[C@H](CO)c1cccc(-c2cccc(COc3c(F)cccc3CC(=O)O)c2)c1 [Example 75-B, (S)-2-(2-((3′-(1-Amino-2-hydroxyethyl)-[1,1′-biphenyl]-3-yl)methoxy)-3-fluorophenyl)acetic acid]
260 nM	C[C@@](N)(CO)c1cccc(-c2cccc(COc3ccccc3CC(=O)O)c2)c1 [Example 142-F]
22 nM	N[C@H](CO)c1cccc(-c2cc(COc3ccccc3CC(=O)O)cc(C3CC3)c2)c1 [Example 109-B, (S)-2-(2-((3′-(1-Amino-2-hydroxyethyl)-5-cyclopropyl-[1,1′-biphenyl]-3-yl)methoxy)phenyl)acetic acid]
15 nM	N[C@H](CO)c1cccc(-c2cc(COc3ccccc3CC(=O)O)ccc2F)c1 [Example 122, (S)-2-(2-((3′-(1-Amino-2-hydroxyethyl)-6-fluoro-[1,1′-biphenyl]-3-yl)methoxy)phenyl)acetic acid]
20500 nM and 20800 nM	O=C(O)Cc1ccccc1OCc1cccc(-c2cccc(-c3nnn[nH]3)c2)c1 [Example 191, 2-(2-((3′-(1H-Tetrazol-5-yl)-[1,1′-biphenyl]-3-yl)methoxy)phenyl)acetic acid]
41 nM	N[C@H](CO)c1cc(F)cc(-c2cccc(COc3ccccc3CC(=O)O)c2)c1 [Example 190-A]
10 nM	C[C@@H](N)c1cccc(-c2cc(CCCF)cc(COc3ccccc3CC(=O)O)c2)c1 [Example 271, (R)-2-(2-((3′-(1-aminoethyl)-5-(3-fluoropropyl)-[1,1′-biphenyl]-3-yl)methoxy)phenyl)acetic acid]
263 nM	CCC[C@@H](N)c1cccc(-c2cccc(COc3c(F)cccc3CC(=O)O)c2)c1 [Example 194, (R)-2-(2-((3′-(1-Aminobutyl)-[1,1′-biphenyl]-3-yl)methoxy)-3-fluorophenyl)acetic acid]
22 nM	C[C@H](N)c1cccc(-c2cccc(COc3ccccc3CC(=O)O)c2)c1F [Example 142-H]
52500 nM	Cc1c(COc2ccccc2CC(=O)O)cccc1-c1cccc([C@@H](C)N)c1 [Example 116-N]
9 nM	N[C@H](CO)c1cccc(-c2cc(COc3ccccc3CC(=O)O)c3c(c2)OCO3)c1 [Example 255, (S)-2-(2-((6-(3-(1-amino-2-hydroxyethyl)phenyl)benzo[d][1,3]dioxol-4-yl)methoxy)phenyl)acetic acid]
13 nM	C[C@@H](N)c1cccc(-c2cc(COc3ccccc3CC(=O)O)c3c(c2)OCO3)c1F [Example 253-E, (R)-2-(2-((6-(3-(1-Aminoethyl)-2-fluorophenyl)benzo[d][1,3]dioxol-4-yl)methoxy)phenyl)acetic acid]
